Laboratory results reported in US20210121432A1, “Bambuterol for the Treatment of Alzheimer's Disease” (priority 2018, published 2021).

Columns and labels:
[1] = tested on: rat primary hippocampal neurons injured with Aβ; experiment: Plate B: synapses evaluation (PSD95/SYN) in hippocampal neurons injured with Aβ1-42; format: cell-based; conditions: Aβ 2.5 μM 24 h, FIG. 3
Method: (§1) Bambuterol, referred to as MR36621 in the experiments was tested on rat primary hippocampal neurons that were injured with Aβ. Donezpil was used as a reference test compound.
Rat hippocampal neurons were cultured as described by Callizot et al., Operational dissection of β-amyloid cytopathic effects of cultured neurons, J. Neurosci. Res. 2013 May; 91(5): 706-16. Pregnant female rats of 17 days gestation (Rats Wistar; Janvier Labs France) were euthanized using a deep anesthesia with a CO2 chamber followed by a cervical dislocation. […]
(§2) The supernatant was discarded, and the pellet was resuspended in a defined culture medium consisting of Neurobasal medium with a 2% solution of B27 supplement, 2 mmol/liter of L-glutamine, 2% of PS solution, and 10 ng/ml of brain-derived neurotrophic factor (BDNF). Viable cells were counted in a Neubauer cytometer, using the trypan blue exclusion test. […]
(§3) Bambuterol was placed in a culture medium and preincubated for 1 hour before Aβ application. An Aβ1-42 preparation was added to a final concentration of 20 or 2.5 μM (=2 μM or 0.25 μM of AβO, evaluated by automatic WB) diluted in control medium in presence of the compound. […]
The following endpoints were assessed: • Total number of synapses (overlapping between PSD95/SYN).

[2] = tested on: hyperphosphorylated Tau (AT100) in MAP-2 positive neurons; experiment: Plate A: phospho Tau (AT100) evaluation in MAP-2 hippocampal neurons injured with Aβ1-42; format: cell-based, rat; conditions: Aβ 20 μM 24 h, FIG. 2D
Method: as §1
(§4) Rat hippocampal neurons were cultured as described by Callizot et al., Operational dissection of β-amyloid cytopathic effects of cultured neurons, J. Neurosci. Res. 2013 May; 91(5): 706-16. Pregnant female rats of 17 days gestation (Rats Wistar; Janvier Labs France) were euthanized using a deep anesthesia with a CO2 chamber followed by a cervical dislocation. Fetuses were removed from the uterus and immediately placed in ice-cold L15 Leibovitz medium with a 2% penicillin (10,000 U/ml) and streptomycin (10 mg/ml) solution (PS) and 1% bovine serum albumin (BSA).
(§5) Hippocampal neurons were treated for 20 min at 37° C. with a trypsin-EDTA solution at a final concentration of 0.05% trypsin and 0.02% EDTA. The dissociation was stopped by adding Dulbecco's modified Eagle's medium (DMEM) with 4.5 g/liter of glucose, containing DNAse I grade II (final concentration 0.5 mg/ml) and 10% fetal calf serum (FCS). Cells were mechanically dissociated by three forced passages through the tip of a 10-ml pipette and then centrifuged at 515×g for 10 min at 4° C.
as §2, with “test. Cells were seeded at a density of 20,000 per well in 96-well plates precoated with poly-L-lysine and cultured at 37° C. in an air (95%)-CO2 (5%) incubator. The medium was changed every 2 days.” for “test.”
as §3

[3] = tested on: rat primary hippocampal neurons injured with Aβ; experiment: Plate A: survival and neurite network of MAP-2 hippocampal neurons injured with Aβ1-42; format: cell-based; conditions: for Neurite length per neuron (total neurite network normalized by the number of neurons): FIG. 2C
Method: as §1, §4, §5
The supernatant was discarded, and the pellet was resuspended in a defined culture medium consisting of Neurobasal medium with a 2% solution of B27 supplement, 2 mmol/liter of L-glutamine, 2% of PS solution, and 10 ng/ml of brain-derived neurotrophic factor (BDNF). Viable cells were counted in a Neubauer cytometer, using the trypan blue exclusion test. Cells were seeded at a density of 20,000 per well in 96-well plates precoated with poly-L-lysine and cultured at 37° C. in an air (95%)-CO2 (5%) incubator. The medium was changed every 2 days.
The hippocampal neurons were exposed with A solutions after 17 days of culture. An Aβ1-42 preparation was done following the procedure described by Callizot et al., 2013. Aβ1-42 is a forty-two amino acid form of amyloid β in cerebrospinal fluid and is recognized by persons of ordinary skill in the art as a biomarker for Alzheimer's disease.
Aβ1-42 peptide was dissolved in the defined culture medium mentioned above, at an initial concentration of 40 μM. This solution was gently agitated for 3 days at 37° C. in the dark and immediately used after being properly diluted in culture medium to the concentrations used (20 μM (plate 13) or 2.5 μM (plate 14) corresponding to 2 μM or 0.25 μM of oligomers (AβO) respectively).
Bambuterol was placed in a culture medium and preincubated for 1 hour before Aβ application. An Aβ1-42 preparation was added to a final concentration of 20 or 2.5 μM (=2 μM or 0.25 μM of AβO, evaluated by automatic WB) diluted in control medium in presence of the compound.
Table I identifies two plates that exposed two concentrations of Aβ to different concentrations of bambuterol. The bambuterol was preincubated 1 hour before the application of Aβ.
Twenty-four hours after intoxication, the hippocampal neurons were fixed by a cold solution of ethanol (95%) and acetic acid (5%) for 5 min at −20° C. After permeabilization with 0.1% of saponin, cells were incubated for 2 hours with: • (a) chicken polyclonal antibody anti microtubule-associated-protein 2 (MAP-2), diluted at 1/1000 in PBS containing 1% fetal calf serum and 0.1% of saponin (this antibody allows the specific staining of neuronal cell bodies and neurites; and allow the study of neuronal cell death and neurite network); and • (b) mouse monoclonal antibody anti-phospho Tau (AT100) at dilution of 1/400 in PBS containing 1% fetal calf serum and 0.1% of saponin.
For each condition, multiple pictures (representative of the whole well area) per well were taken using ImageXpress (Molecular Devices) at 20× magnification. All images were taken with the same acquisition parameters. Analyses were performed automatically by using Custom Module Editor® (Molecular Devices). […]

`CN(C)C(=O)Oc1cc(OC(=O)N(C)C)cc(C(O)CNC(C)(C)C)c1` (stereo not drawn) [bambuterol] was tested, and the “Number of synapses (overlapping PSD95/SYN)” value ([1]; bambuterol from 10 nM to 100 nM) was “able to preserve the number of synapses”, the “Hyperphosphorylation of Tau (AT100)” value ([2]; bambuterol all investigated doses (1 nM to 1 μM)) was “significantly reduced the hyperphosphorylation of Tau” and the “Dose of maximal effect on hyperphosphorylation of Tau” value ([2]; bell-shape curve) was 10 nM. For the same compound, the “Total neurite network (MAP-2 positive neurons)” value ([3]; Aβ 20 μM 24 h, all investigated doses of bambuterol (1 nM to 1 μM), FIG. 2B) was “exerted protective effects on the neurite network”, the “Neurite length per neuron (total neurite network normalized by the number of neurons)” value ([3]; Aβ 20 μM 24 h, bambuterol 1 nM to 1 μM) was “did not change this parameter” and the “Neuronal survival (number of MAP-2 positive neurons)” value ([3]; Aβ 20 μM 24 h, bambuterol highest doses 500 nM and 1 μM, FIG. 2A) was “did not show any protective effect”. The “Neuronal survival (number of MAP-2 positive neurons)” value ([3]; Aβ 20 μM 24 h, bambuterol low doses 1 nM to 100 nM, preincubated 1 h, FIG. 2A) was “significant neuroprotective effects to a similar or higher extent to donepezil”, the “Dose of maximal effect on neurite network” value ([3]; Aβ 20 μM 24 h, bell-shape curve, FIG. 2B) was 10 nM and the “Dose of maximal effect on neuronal survival” value ([3]; Aβ 20 μM 24 h, bell-shaped curve, FIG. 2A) was 10 nM. The “Effects of bambuterol compared with Donepezil (summary of the examples)” value ([3]; bambuterol at a dose of 10 nM, hippocampal neurons injured with Aβ 1-42, overall statement over all readouts) was “comparable, and even greater, to those of Donepezil”.

For `COc1cc2c(cc1OC)C(=O)C(CC1CCN(Cc3ccccc3)CC1)C2` (stereo not drawn) [Donepezil], the “Number of synapses (overlapping PSD95/SYN)” value ([1]; Donepezil 1 μM) was “mitigated the loss of synapses”, the “Hyperphosphorylation of Tau (AT100)” value ([2]; Donepezil 1 μM) was “significantly mitigate this hyperphosphorylation” and the “Neuronal survival (number of MAP-2 positive neurons)” value ([3]; Aβ 20 μM 24 h, Donepezil 1 μM, FIG. 2A) was “significantly protect neurons from death”. The “Total neurite network (MAP-2 positive neurons)” value ([3]; Aβ 20 μM 24 h, Donepezil 1 μM, FIG. 2B) was “significantly preserved almost the whole neurite network” and the “Neurite length per neuron (total neurite network normalized by the number of neurons)” value ([3]; Aβ 20 μM 24 h, Donepezil 1 μM) was “longer”.
